Among the data in US20260334439A1, “BCAT2 INHIBITORS” (Agios Pharmaceuticals, Inc., priority 2023, published 2026) are IC50 values, retold here.

Experiment [1] deals with T1, BCAT2 (Homo sapiens, UniProt O15382).
T1 sequence (O15382 28-392): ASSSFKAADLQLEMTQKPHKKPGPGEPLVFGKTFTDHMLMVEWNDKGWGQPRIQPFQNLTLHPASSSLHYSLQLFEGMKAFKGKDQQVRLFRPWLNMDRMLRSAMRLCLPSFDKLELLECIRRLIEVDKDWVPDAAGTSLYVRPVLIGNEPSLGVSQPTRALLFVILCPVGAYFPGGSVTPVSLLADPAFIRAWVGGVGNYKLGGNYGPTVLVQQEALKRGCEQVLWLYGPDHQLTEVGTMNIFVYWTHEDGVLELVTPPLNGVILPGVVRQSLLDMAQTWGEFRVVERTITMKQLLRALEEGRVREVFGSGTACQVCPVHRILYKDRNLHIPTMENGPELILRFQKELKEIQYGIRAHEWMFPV
Kind of experiment: BCAT2 in vitro enzyme inhibition assay (hBCAT2, glutamate dehydrogenase/diaphorase/resazurin coupled fluorescence read). The experiment is classed as biochemical. The following applies: hBCAT2, 1 h preincubation at 25° C., one hour reaction; average where tested multiple times. The method in brief:
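Coupled GDH/diaphorase/resazurin fluorescence (Ex 540/Em 590) read after 1 h reaction at 25 °C, SDS-stopped; enzyme (0.33 μg/mL in mix) first preincubated 1 h with compound, 10-point 3-fold series from 100 μM final, Tris pH 8.0 buffer with NaCl, BSA; technical duplicates, averaged across tests.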
For orientation: The colour change of resazurin is a common sign of viable cells or microbes.

Experiment [2] addresses T1, BCAT2. The experiment is described as follows: BCAT2 cell inhibition using engineered A549 cells (MUT KO, BCAT1 KO; 13C6-KMV formation by LC-MS/MS). It is filed as cell-based. On the set-up: expressed endogenous BCAT2; endogenous in cells; host or cells: A549 cells, MUT knockout and BCAT1 knockout. The method in brief: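 Medium 13C6-KMV formation is read by LC-MS/MS after PFBHA derivatization with d8-KMV internal standard. Cells are CRISPR MUT/BCAT1 double-knockout A549 expressing endogenous BCAT2, given compound 15 min before labelled isoleucine (800 uM, added 1:1) for 24 h. CTG viability run in parallel; replicates averaged.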

Setting [3] is: read-out: BCAT2 Cell Inhibition (IC50), engineered A549 cells, 24 hours, 13C6-KMV in media, average where tested multiple times.

`CN1C[C@H](NC(=O)c2cc(Cl)ccn2)C[C@H](n2c(-c3ncccc3F)nc3cnc(-c4nc[nH]n4)cc32)C1` [Example 132, 4-chloro-N-((3R,5S)-5-(2-(3-fluoropyridin-2-yl)-6-(1H-1,2,4-triazol-3-yl)-1H-imidazo[4,5-c]pyridin-1-yl)-1-methylpiperidin-3-yl)picolinamide]: the concentration for half-maximal inhibition (IC50) (commonly the concentration that gives 50% inhibition) in experiment [1] was less than 0.1 µM; in experiment [2] (setting [3]) it was greater than 1 µM.
Take `CO[C@H]1C[C@H](NC(=O)c2cc(F)ccn2)C[C@H](n2c(-c3ccccc3F)nc3cnc(-c4nc[nH]n4)cc32)C1` [Example 113, 4-fluoro-N-((1R,3S,5S)-3-(2-(2-fluorophenyl)-6-(1H-1,2,4-triazol-3-yl)-1H-imidazo[4,5-c]pyridin-1-yl)-5-methoxycyclohexyl)picolinamide]: the concentration for half-maximal inhibition (IC50) in experiment [1] and in experiment [2] was less than 0.1 µM throughout.
`O=C(N[C@H]1CCC[C@@H](n2c(-c3ncccc3F)nc3cnc(-c4nc[nH]n4)cc32)C1)c1cc(Cl)ccn1` [Example 15, 4-chloro-N-((1S,3R)-3-(2-(3-fluoropyridin-2-yl)-6-(1H-1,2,4-triazol-3-yl)-1H-imidazo[4,5-c]pyridin-1-yl)cyclohexyl)picolinamide]: the IC50 in experiment [1] and in experiment [2] was less than 0.1 µM in each case.
`CC(C)Cc1nc2ccc(-c3ncccn3)cc2n1[C@@H]1CCC[C@H](NC(=O)c2cc(Cl)ccn2)[C@H]1O` [Example 219, 4-chloro-N-((1S,2R,3R)-2-hydroxy-3-(2-isobutyl-6-(pyrim-idin-2-yl)-1H-benzo[d]imidazol-1-yl)cyclohexyl)picolinamide]: the results for the 50% inhibitory concentration (IC50) in experiment [1] and in experiment [2] were less than 0.1 µM and 0.1 to 0.5 µM, respectively.
For `COc1ccc(Cl)cc1C(=O)N[C@@H]1C[C@H](n2c(-c3ccccc3F)nc3cnc(-c4nc[nH]n4)cc32)CN(C)C1` [Example 136, 5-chloro-N-((3R,5S)-5-(2-(2-fluorophenyl)-6-(1H-1,2,4-triazol-3-yl)-1H-imidazo[4,5-c]pyridin-1-yl)-1-methylpiperidin-3-yl)-2-methoxybenzamide] the same measures were less than 0.1 µM and 0.1 to 0.5 µM.
For `N#Cc1ccccc1-c1nc2cnc(-c3nc[nH]n3)cc2n1[C@@H]1CCC[C@H](NC(=O)c2cc(F)ccc2F)C1` [Example 81, N-((1S,3R)-3-(2-(2-cyanophenyl)-6-(1H-1,2,4-triazol-3-yl)-1H-imidazo[4,5-c]pyridin-1-yl)cyclohexyl)-2,5-difluorobenzamide] the same measures were less than 0.1 µM and 0.1 to 0.5 µM.
For `CC(Oc1ccc(Cl)cc1C(=O)N[C@H]1CCC[C@@H](n2c(-c3ccccc3F)nc3cnc(-c4nc[nH]n4)cc32)C1)C(F)(F)F` (stereo partly drawn) [Example 88, 5-chloro-N-((1S,3R)-3-(2-(2-fluorophenyl)-6-(1H-1,2,4-triazol-3-yl)-1H-imidazo[4,5-c]pyridin-1-yl)cyclohexyl)-2-((1,1,1-trifluoropropan-2-yl)oxy)benzamide], in that order: less than 0.1 µM and 0.1 to 0.5 µM.
For `O=C(N[C@H]1CCC[C@@H](n2c(-c3ccccc3F)nc3cnc(-c4nc[nH]n4)cc32)C1)c1cc(Cl)ccc1OC(CO)CO` [Example 90, 5-chloro-2-((1,3-dihydroxypropan-2-yl)oxy)-N-((1S,3R)-3-(2-(2-fluorophenyl)-6-(1H-1,2,4-triazol-3-yl)-1H-imidazo[4,5-c]pyridin-1-yl)cyclohexyl)benzamide], the IC50 in experiment [1] is less than 0.1 µM; in experiment [2], 0.1 to 0.5 µM.
For `O=C1c2ccc(F)cc2C(=O)N1[C@H]1CCC[C@@H](n2c(-c3ccccc3F)nc3cnc(-c4nc[nH]n4)cc32)C1` [Example 182, 5-fluoro-2-((1S,3R)-3-(2-(2-fluorophenyl)-6-(1H-1,2,4-triazol-3-yl)-1H-imidazo[4,5-c]pyridin-1-yl)cyclohexyl)isoindoline-1,3-dione], in that order: less than 0.1 µM and less than 0.1 µM.
For `COc1ccc(Cl)cc1C(=O)N[C@H]1C[C@H](OC)C[C@@H](n2c(-c3ccccc3F)nc3cnc(-c4nc[nH]n4)cc32)C1` [Example 106, 5-chloro-N-((1R,3S,5S)-3-(2-(2-fluorophenyl)-6-(1H-1,2,4-triazol-3-yl)-1H-imidazo[4,5-c]pyridin-1-yl)-5-methoxycyclohexyl)-2-methoxybenzamide] the same measures were less than 0.1 µM and less than 0.1 µM.
For the molecule `O=C1c2cc(Cl)ccc2OCN1[C@H]1CCC[C@@H](n2c(-c3ccccc3OC(F)F)nc3cnc(-c4nc[nH]n4)cc32)C1` [compound 205], the IC50 in experiment [1] and in experiment [2] was less than 0.1 µM each time.
With `O=C1c2cc(F)ccc2CN1[C@H]1CCC[C@@H](n2c(-c3ccccc3OCCO)nc3cnc(-c4nc[nH]n4)cc32)C1` [Example 173, 6-fluoro-2-((1S,3R)-3-(2-(2-(2-hydroxyethoxy)phenyl)-6-(1H-1,2,4-triazol-3-yl)-1H-imidazo[4,5-c]pyridin-1-yl)cyclohexyl)isoindolin-1-one], the IC50 in experiment [1] and in experiment [2] was less than 0.1 µM each time.
Consider `CC(=O)N1C[C@H](N2Cc3ccc(F)cc3C2=O)C[C@H](n2c(-c3ccccc3F)nc3cnc(-n4nccn4)cc32)C1` [Example 200, 2-((3R,5S)-1-acetyl-5-(2-(2-fluorophenyl)-6-(2H-1,2,3-triazol-2-yl)-1H-imidazo[4,5-c]pyridin-1-yl)piperidin-3-yl)-6-fluoroisoindolin-1-one], for which the 50% inhibitory concentration (IC50) in experiment [1] and in experiment [2] was less than 0.1 µM each time.
Take `CN1C[C@@H](NC(=O)c2cc(Cl)ccn2)C[C@@H](n2c(-c3ccccc3F)nc3cnc(-c4nc[nH]n4)cc32)C1` [Example 129, 4-chloro-N-((3S,5R)-5-(2-(2-fluorophenyl)-6-(1H-1,2,4-triazol-3-yl)-1H-imidazo[4,5-c]pyridin-1-yl)-1-methylpiperidin-3-yl)picolinamide]: the IC50 in experiment [1] was 0.1 to 0.5 µM; in experiment [2] (setting [3]), greater than 1 µM.
With `CCN(C)c1nc2cnc(-c3nc[nH]n3)cc2n1[C@@H]1CCC[C@H](NC(=O)c2cc(Cl)ccn2)C1` [Example 21, 4-chloro-N-((1S,3R)-3-(2-(ethyl(methyl)amino)-6-(1H-1,2,4-triazol-3-yl)-1H-imidazo[4,5-c]pyridin-1-yl)cyclohexyl)picolinamide], the IC50 in experiment [1] was 0.1 to 0.5 µM; in experiment [2] (setting [3]) it was greater than 1 µM.
As to `O=C(N[C@H]1CCC[C@@H](n2c(-c3ccccc3OCCO)nc3cnc(-c4nc[nH]n4)cc32)C1)c1cc(Cl)ccc1F` [Example 86, 5-chloro-2-fluoro-N-((1S,3R)-3-(2-(2-(2-hydroxyethoxy)phenyl)-6-(1H-1,2,4-triazol-3-yl)-1H-imidazo[4,5-c]pyridin-1-yl)cyclohexyl)benzamide], the IC50 in experiment [1] was less than 0.1 µM; in experiment [2], 0.1 to 0.5 µM.
For `CC(C)(O)COc1ccc(Cl)cc1C(=O)N[C@H]1CCC[C@@H](n2c(-c3ccccc3F)nc3cnc(-c4nc[nH]n4)cc32)C1` [Example 39, 5-chloro-N-((1S,3R)-3-(2-(2-fluorophenyl)-6-(1H-1,2,4-triazol-3-yl)-1H-imidazo[4,5-c]pyridin-1-yl)cyclohexyl)-2-(2-hydroxy-2-methylpropoxy)benzamide] the same measures were less than 0.1 µM and less than 0.1 µM.
For `O=C(N[C@H]1CCC[C@@H](n2c(-c3ccccc3F)nc3ccc(-c4nc[nH]n4)cc32)[C@@H]1O)c1cc(Cl)ccn1` [Example 218, 4-chloro-N-((1S,2R,3R)-3-(2-(2-fluorophenyl)-6-(1H-1,2,4-triazol-3-yl)-1H-benzo[d]imid-azol-1-yl)-2-hydroxycyclohex-yl)picolinamide], in that order: less than 0.1 µM and 0.1 to 0.5 µM.
For `CC(=O)N1CC(N2Cc3ccc(F)cc3C2=O)CC(n2c(-c3c(F)cccc3F)nc3cnc(-c4nc[nH]n4)cc32)C1` (stereo not drawn) [Example 201, 2-(1-acetyl-5-(2-(2,6-difluorophenyl)-6-(1H-1,2,4-triazol-3-yl)-1H-imidazo[4,5-c]pyridin-1-yl)piperidin-3-yl)-6-fluoroisoindolin-1-one], in that order: less than 0.1 µM and less than 0.1 µM.
On to `O=C1c2cc(F)ccc2CN1[C@H]1CCC[C@@H](n2c(-c3ccccc3F)nc3cnc(-c4nc[nH]n4)cc32)[C@@H]1O` [Example 184, 6-fluoro-2-((1S,2S,3R)-3-(2-(2-fluorophenyl)-6-(1H-1,2,4-triazol-3-yl)-1H-imidazo[4,5-c]pyridin-1-yl)-2-hydroxycyclohexyl)isoindolin-1-one], for which the IC50 in experiment [1] and in experiment [2] was less than 0.1 µM throughout.
Take `O=C(N[C@H]1CCC[C@@H](n2c(-c3ccccc3F)nc3cnc(-c4nc[nH]n4)cc32)C1)c1ccc(Cl)cn1` [Example 13, 5-chloro-N-((1S,3R)-3-(2-(2-fluorophenyl)-6-(1H-1,2,4-triazol-3-yl)-1H-imidazo[4,5-c]pyridin-1-yl)cyclohexyl)picolinamide]: the concentration for half-maximal inhibition (IC50) in experiment [1] and in experiment [2] was less than 0.1 µM each time.
